Test results as given in patent US8133849B2, “Herbicidal compounds” (Syngenta Limited, priority 2007, dated 2012).

Columns and labels:
Test in all cases: Example B2 herbicidal action, post-emergence, pots in glasshouse, damage score 0-10
Format in all cases: in vivo
Conditions in all cases: application post-emergence, rate 1000 g/ha, evaluated after 13 days
Amaranthus retroflexus = tested on: Amaranthus retroflexus
Method in brief: (§1)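 Evaluation took place 13 days post-spray. Treatment used an acetone/water (50:50), 0.5% Tween 20 formulation applied to 8-day-old potted plants, held at 24/16 °C with 14 h light, 65% humidity and twice-daily watering.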

Echinochloa crus-galli = tested on: Echinochloa crus-galli
Method in brief: as §1

Ipomea hederaceae = tested on: Ipomea hederaceae
Method in brief: as §1

Setaria faberi = tested on: Setaria faberi
Method in brief: as §1

Solanum nigrum = tested on: Solanum nigrum
Method in brief: as §1

| SMILES | AMARE damage score (10=total damage to plant; 0=no damage to plant) (Amaranthus retroflexus) | ECHCG damage score (10=total damage to plant; 0=no damage to plant) (Echinochloa crus-galli) | IPOHE damage score (10=total damage to plant; 0=no damage to plant) (Ipomea hederaceae) | SETFA damage score (10=total damage to plant; 0=no damage to plant) (Setaria faberi) | SOLNI damage score (10=total damage to plant; 0=no damage to plant) (Solanum nigrum) |
| --- | --- | --- | --- | --- | --- |
| O=S1(=O)C(c2cc(C(F)(F)F)ccc2C(F)(F)F)=C(O)c2nccnc2N1CC(F)F [Compound D22] | 10 | 7 | 10 | 6 | 10 |
| CC(C)C(=O)OC1=C(c2ccc(Cl)cc2Cl)S(=O)(=O)N(CCF)c2nccnc21 [Compound C58, isobutyric acid 3-(2,4-dichloro-phenyl)-1-(2-fluoroethyl)-2,2-dioxo-1,2-dihydro-2-λ-6-thia-1,5,8-triaza-naphthalen-4-yl ester] | 10 | 6 | 9 | 4 | 9 |
| CCN1c2nccnc2C(OC(=O)C(C)(C)C)=C(c2cc(C(F)(F)F)ccc2Cl)S1(=O)=O [Compound C33] | 1 | 0 | 5 | 0 | 6 |
| CC(C)(C)C(=O)OC1=C(c2cc(C(F)(F)F)ccc2Cl)S(=O)(=O)N(CC(F)F)c2nccnc21 [Compound C34, 2,2-dimethyl-propionic acid 3-(2-chloro-5-trifluoromethyl-phenyl)-1-(2,2-difluoro-ethyl)-2,2-dioxo-1,2-dihydro-2-λ-6-thia-1,5,8-triaza-naphthalen-4-yl ester] | 7 | 7 | 10 | 2 | 9 |
| CCc1cc(C)cc(CC)c1C1=C(OC(=O)C(C)C)c2nccnc2N(CC(F)F)S1(=O)=O [Compound C48] | 3 | 0 | 6 | 0 | 5 |
| CCN1c2nccnc2C(O)=C(c2c(F)ccc(Cl)c2Cl)S1(=O)=O [Compound D4] | 8 | 4 | 10 | 2 | 10 |
| O=C(OC1=C(c2c(Cl)ccc(Cl)c2Cl)S(=O)(=O)N(CC(F)F)c2nccnc21)Sc1ccccc1 [Compound C126] | 9 | 7 | 7 | 4 | 9 |
| Cc1ccc(C(F)(F)F)c(C2=C(OC(=O)C(C)(C)C)c3nccnc3N(CC(F)F)S2(=O)=O)c1 [Compound C148] | 7 | 3 | 8 | 2 | 9 |
| CC(C)C(=O)OC1=C(c2ccccc2I)S(=O)(=O)N(CC(F)F)c2nccnc21 [Compound C117] | 10 | 8 | 9 | 7 | 10 |
| CC(C)C(=O)OC1=C(c2cc(Cl)cc(C(F)(F)F)c2)S(=O)(=O)N(CC(F)F)c2nccnc21 [Compound C149] | 10 | 0 | 0 | 0 | 8 |
| Cc1ccc(F)c(C2=C(O)c3nccnc3N(CC(F)F)S2(=O)=O)c1Cl [Compound D12] | 6 | 0 | 5 | 2 | 9 |
| CC#CCN1c2nccnc2C(OC(=O)C(C)(C)C)=C(c2c(Cl)ccc(Cl)c2C(F)(F)F)S1(=O)=O [Compound C96] | 0 | 1 | 4 | 0 | 7 |
| O=S1(=O)C(c2c(C(F)(F)F)ccc(Cl)c2Cl)=C(O)c2nccnc2N1CC(F)F [Compound D57] | 10 | 9 | 7 | 10 | 10 |
| CSC(=O)OC1=C(c2c(Cl)cccc2C(F)(F)F)S(=O)(=O)N(CC(F)F)c2nccnc21 [Compound C129] | 10 | 9 | 9 | 9 | 10 |
| COc1cccc(F)c1C1=C(OC(=O)C(C)C)c2nccnc2N(CC(F)F)S1(=O)=O [Compound C137] | 7 | 3 | 8 | 8 | 9 |
| CS(=O)(=O)OC1=C(c2cc(C(F)(F)F)ccc2Cl)S(=O)(=O)N(CC(F)F)c2nccnc21 [Compound C95] | 7 | 6 | 10 | 3 | 9 |
| CC(C)(C)C(=O)OC1=C(c2ccc(I)cc2Cl)S(=O)(=O)N(CC(F)F)c2nccnc21 [Compound C141] | 7 | 2 | 7 | 0 | 8 |
| COCN1c2nccnc2C(OC(=O)C(C)C)=C(c2ccc(Cl)cc2Cl)S1(=O)=O [Compound C27] | 7 | 3 | 6 | 6 | 9 |
